Test [1] has as its system mouse model of Niemann-Pick Type C disease. Conditions: cited from earlier work.
Test [2] relates to primary astrocyte cultures. Conditions: cited from earlier work.
A further test relates to TUNEL-positive RGCs. Kind of test: Rat in vivo OHT model, TUNEL staining. Conditions: OHT eyes, intravitreal, three weeks after bead injection; single values. As to the method: Example 7. Rat in vivo OHT model induced by intracameral injection of microbeads—For induction of ocular hypertension (OHT) in vivo, sterile 6 μm polystyrene microbeads were injected into the anterior chamber of the left eye of each animal using a single-step, sclero-corneal tunnel approach with a 35G nanoneedle (FIG. 4A). […] After stabilization of elevated IOP, animals were randomly divided into 3 groups (non-treated OHT, AlloP injection, and ent-AlloP injection). AlloP and ent-AlloP were administered as a one-time intravitreal injection one week following bead injection. Non-treated OHT animals received sterile vehicle intravitreally. […]
Apoptosis—To visualize apoptotic cells, a DeadEnd™ Colorimetric TUNEL (TdT-mediated dUTP Nick-End Labeling) System (Promega, Madison, WI) was used according to the manufacturer's instructions. […] After the length of each retinal section was measured (Image-Pro Plus software), the cells were counted in the whole section length and the number of cells was normalized per 200 μm of retinal section. The number of apoptotic cells was evaluated by Dunnett's multiple comparison test to determine changes in the density of apoptotic cells among experimental retinas treated with 1 μM AlloP or 1 μM ent-AlloP at 75 mmHg and control retinas incubated with aCSF at 75 mmHg. […]

Values joined by “and” are separate entries in the source; they are usually repeats but may differ in a detail not shown here. Equal values may be shown once.

The values below come from patent publication US20240041898A9, “NEUROSTEROIDS AND ENANTIOMERS THEREOF FOR THE PREVENTION AND TREATMENT OF NEURODEGENERATIVE CONDITIONS” (priority 2019, published 2024).

With `CC(=O)[C@H]1CC[C@H]2[C@@H]3CC[C@H]4C[C@H](O)CC[C@]4(C)[C@H]3CC[C@]12C` [AlloP, allopregnanolone], the autophagy result in test [1] and in test [2] was “activate autophagy” each time. Moreover, in the test with TUNEL-positive RGCs, the “TUNEL staining (FIG. 4I), number of TUNEL-positive RGCs, individual 1-5” value is 1 per 200 μm of retinal sections (2×) and 0 per 200 μm of retinal sections (3×).
`CC(=O)[C@@H]1CC[C@@H]2[C@H]3CC[C@@H]4C[C@@H](O)CC[C@@]4(C)[C@@H]3CC[C@]21C` [ent-AlloP, ent-allopregnanolone]: the “TUNEL staining (FIG. 4I), number of TUNEL-positive RGCs, individual 1-5” value with TUNEL-positive RGCs was 1 per 200 μm of retinal sections (2×) and 0 per 200 μm of retinal sections (3×).
